{"source": "patent US20100330028A1", "about": "“COMBINATION THERAPY FOR CHRONIC DERMAL ULCERS” (The Board of Regents THe Universityof Texas System, priority 2007, published 2010)", "key": {"[1]": {"system": "Human coronary artery endothelial (HCAE) cells", "experiment": "Migration of HCAE cells through fibronectin-coated insert toward PDGF", "type": "cell-based", "conditions": "PDGF 10 ng/ml, 22 h", "experimental": "(§1) The design of experiments to measure invasion and migration of endothelial cells toward the angiogenic factor PDGF (platelet-derived growth factor-BB) is shown in FIGS. 7A and 8A respectively. The standard assay used 5×10^4 cells added to the top of the insert in 250 μl of medium. The lower portion of the apparatus contained 750 μl of medium, plus or minus PDGF. […] Transmembrane cell invasion and migration assays were performed using BD FluoroBlok inserts coated with BD Matrigel Matrix (a biologically active basement membrane preparation) or with fibronectin (BD Bioscience, Bedford, Mass.), respectively. […] PDGF [10 ng/ml] (R&D System, Minneapolis, Minn. (PDGF) or medium alone (CTR) were added to the lower chamber of the insert plate as a chemoattractant. The cells were allowed to invade or migrate for 22 hours. Cells were labeled post invasion or post migration with Calcein AM (4 μg/ml) and the fluorescence of the cells that invaded through the BD Matrigel Matrix or migrated to the underside of the insert membrane was measured using a plate reader at 485 nm (excitation) and 530 nm (emission)."}, "[2]": {"system": "Human coronary artery endothelial (HCAE) cells", "experiment": "Invasion of HCAE cells through Matrigel toward PDGF", "type": "cell-based", "conditions": "PDGF 10 ng/ml, 22 h", "experimental": "as §1"}, "[3]": {"system": "Human coronary artery endothelial (HCAE) cells", "experiment": "Invasion of HCAE cells through Matrigel toward bFGF", "type": "cell-based", "conditions": "bFGF 10 ng/ml, 22 h", "experimental": "(§2) The design of experiments to measure invasion and migration of endothelial cells toward the angiogenic factor bFGF (basic fibroblast growth factor) is shown in FIGS. 5A and 6A, respectively. The standard assay used 5×10^4 cells added to the top of the insert in 250 μl of medium. The lower portion of the apparatus contained 750 μl of medium, plus or minus bFGF. […] Transmembrane cell invasion and migration assays were performed using BD FluoroBlok (BD Bioscience, Bedford, Mass.) inserts coated with BD Matrigel Matrix (a biologically active basement membrane preparation) or with fibronectin, respectively. […] (R&D System, Minneapolis, Minn.) (FGF) or medium alone (CTR) were added to the lower chamber of the insert plate as a chemoattractant. The cells were allowed to invade or migrate for 22 hours. Cells were labeled post invasion or post migration with Calcein AM (4 μg/ml) and the fluorescence of the cells that invaded through the BD Matrigel Matrix or migrated to the underside of the insert membrane was measured using a plate reader at 485 nm (excitation) and 530 nm (emission)."}, "[4]": {"system": "Human coronary artery endothelial (HCAE) cells", "experiment": "Migration of HCAE cells through fibronectin-coated insert toward bFGF", "type": "cell-based", "conditions": "bFGF 10 ng/ml, 22 h", "experimental": "as §2"}, "[5]": {"system": "thrombin receptor", "conditions": "cited from earlier work"}, "[6]": {"system": "thrombin receptor", "conditions": "cited from earlier work", "remark": "listed apart in the source"}, "[7]": {"system": "AC-23", "sequence (as listed by the source)": "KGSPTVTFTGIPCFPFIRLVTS", "experiment": "Binding of biotin-conjugated thrombin to complementary peptide AC-23"}, "[8]": {"system": "23C53", "sequence (as listed by the source)": "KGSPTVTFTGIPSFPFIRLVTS", "experiment": "Binding of biotin-conjugated thrombin to complementary peptide 23C53"}}}
{"substance": "PDGF", "values": [{"measurement": "Effect of PDGF on endothelial cell migration compared to control (CTR)", "setting": "[1]", "value": "no effect"}, {"measurement": "Effect of PDGF on endothelial cell invasion compared to control medium without PDGF", "setting": "[2]", "value": "no effect"}]}
{"substance": "bFGF: angiogenic factor basic fibroblast growth factor (R&D System)", "values": [{"measurement": "bFGF-induced endothelial cell invasion as % of invasion with control medium (CTR)", "setting": "[3]", "value": "~170", "unit": "%"}, {"measurement": "Increase of endothelial cell migration by bFGF compared to control medium not containing bFGF", "setting": "[4]", "value": "~40", "unit": "%"}]}
{"substance": "p508-530: stimulatory thrombin polypeptide derivative containing fibronectin- and serine protease-homologous domains, residues 508 to 530 of human thrombin", "values": [{"measurement": "Binding to thrombin receptors", "setting": "[5]", "value": "bind to thrombin receptors with high-affinity"}, {"measurement": "Induction of mitogenesis / mitogenic signals", "setting": "[6]", "value": "substitute for DIP-alpha-thrombin as an initiator of receptor occupancy-related mitogenic signals"}]}
{"substance": "p519-530: intermediate thrombin peptide derivative, residues 519-530 of human thrombin (QPSVLQVVNLPI; UniProt P00734 519-530, looked up, fragment)", "values": [{"measurement": "Induction of mitogenesis / mitogenic signals", "setting": "[6]", "value": "retains the ability to mediate mitogenesis but to a much lesser degree than p508-530"}]}
{"substance": "thrombin", "values": [{"measurement": "Specific binding of biotin-conjugated thrombin to AC23", "setting": "[7]", "value": "bind specifically"}, {"measurement": "Specific binding of biotin-conjugated thrombin to 23C53", "setting": "[8]", "value": "bind specifically"}]}
